# Test results reported in patent US20040241194A1, “Food supplement for animals” (Phytosynthese, priority 2001, published 2004).
# Columns and labels:
# [1] = Influence on growth of chickens, open-label study versus monensin; type: in vivo; settings: for Mean daily weight gain: composition at 1.5 kg per tonne
# Description: The parameters considered are the performance index and the mean daily weight gain. The composition of the invention is administered at the rate of 1.5 kg per tonne.
# [2] = Influence on growth, study on white free-range chickens; type: in vivo
# Description: This test is conducted under the same conditions by administering 2 kg of the composition of the invention per tonne to four batches of chickens.
structure (smiles),measurement,setting,value
"CC[C@@]1([C@@H]2O[C@@H]([C@H]3O[C@@](O)(CO)[C@H](C)C[C@@H]3C)C[C@@H]2C)CC[C@H]([C@]2(C)CC[C@]3(C[C@H](O)[C@@H](C)[C@@H]([C@@H](C)[C@@H](OC)[C@H](C)C(=O)O)O3)O2)O1 [Control, monensin]",Mean weight,[1]; Table VI batch,2.083 kg
same,Performance index,[1]; Table VI batch,87
same,Mean daily weight gain,[1]; Table VI batch,25.32 g
same,Mean weight,[1]; Table VII batch,2.169 kg
same,Performance index,[1]; Table VII batch,95
same,Mean daily weight gain,[1]; Table VII batch,26.46 g
same,Feed conversion index (quantity of feed for obtaining 1 kg of chicken),[2]; General Mean,2.979
same,Mean weight,[2]; General Mean,2.116 kg
same,Mean daily weight gain,"[2]; General Mean, composition at 2 kg per tonne",25.46 g
same,Feed conversion index (quantity of feed for obtaining 1 kg of chicken),[2]; Mean of the 1st third,2.810
same,Mean daily weight gain,[2]; Mean of the 1st third,26.30 g
same,Mean weight,[2]; Mean of the 1st third,2.265 kg
same,Feed conversion index (quantity of feed for obtaining 1 kg of chicken),[2]; Mean of the 2nd third,2.960
same,Mean daily weight gain,[2]; Mean of the 2nd third,25.48 g
same,Mean weight,[2]; Mean of the 2nd third,2.131 kg
same,Feed conversion index (quantity of feed for obtaining 1 kg of chicken),[2]; Mean of the 3rd third,3.167
same,Mean daily weight gain,[2]; Mean of the 3rd third,24.64 g
same,Mean weight,[2]; Mean of the 3rd third,2.054 kg
